Data set [1] has as its system SH-SY5Y human neuroblastoma cell line (neuron-like phenotype). Nature of the data set: Calcein AM viability test on ATRA-differentiated neuron-like SH-SY5Y cells. The data set is classed as cell-based. Particulars: 24 hours of treatment, mean of two independent experiments. As for the experimental part: (§1) The SH-SY5Y human neuroblastoma cell line obtained purchased from ECACC (The European Collection of Authenticated Cell Cultures) was cultivated in Dulbecco's modified Eagle's Medium and Ham's F12 Nutrient Mixture (DMEM:F-12, 1:1), supplemented with 10% fetal bovine serum (FBS) and 1% penicillin and streptomycin at 37° C. in a humidified atmosphere 5% CO2, 95% air in passage limit up to ECACC+20. The assay was performed in 96-well microplate with 7000 SH-SY5Y cells per well. Next day, SH-SY5Y underwent all-trans retinoic acid (ATRA)-differentiation for 48 h (ATRA 10 μM). After 48 h, old DMEM/F12 media was removed by fresh media containing tested compounds at 0.1, 1 and 10 μM concentrations for 24 h. The tested compounds were dissolved in DMSO were added into the medium. The maximum concentration of DMSO in media was kept below 0.1% (v/v). The cell viability was measured by Calcein AM (1 mg/ml ThermoFisher) viability assay. Solution of Calcein AM in PBS (0.75 μM) was pipetted to cells and incubated for 50 minutes. After that the fluorescence was measured at 488/517 nm (excitation/emission) using microplate reader Infinite M200 (TECAN). Calcein AM assay is based on the dye-intracellular-esterase cleavage of non-fluorescent dye (Calcein AM) by living cells to fluorescent dye (Calcein), while dyeing cells that lose such ability. The values in Table 4 show % of viability, relative to control of all tested compounds. The control (medium with DMSO, <0.1% (v/v)) was postulated as 100% viability (see the first line of the table).

For data set [2], the system named is neuron-like SH-SY5Y cells. Kind of data set: Glutamate-induced oxidative stress, superoxide radical formation by dihydroethidium staining. It counts as cell-based, human. Particulars: 4 hour co-treatment with 160 mM Glu, percentages of 160 mM Glu control, mean of three independent experiments. As for the experimental part: Similarly as shown in previous assay, cells grew on 96 multiwell plates at density 20000 cells per well underwent differentiation and treatment procedure for glutamate model. After 4 hour co-treatment with glutamate superoxide radical's formation as marker of oxidative stress was quantified by dihydroethidium according to Kim et al. 2017, J. Med. Food, 20, 140-151 with modifications. Briefly, neuron-like SH-SYSY cells were centrifuged at 500 g for 5 minutes and 30 seconds, then media were replaced by 10 μM DHE PBS solution and kept at room temperature for 30 minutes. After 30 minutes, DHE was read at 500 nm/580 nm (excitation/emission) by Infinite M200 Pro (Tecan) microplate reader. DHE is cell permeable dye which is selective toward superoxide radical detection. Overall oxidative stress achieved by 160 mM Glu was consider as 100% so that the reduction in oxidative stress (OS reducing effect) was observed. As shown in Table 6 and FIG. 2, 160 mM Glu induced 2.6 fold increase in superoxide radical's formation.

Data set [3] has as its system human neuron-like SH-SY5Y cells. Nature of the data set: Neuroprotective effect on glutamate-induced oxidative damage, cell death by propidium iodide staining. The data set is classed as cell-based. Particulars: for Neuroprotective effect (% of control): co-treatment with 160 mM Glu for 24 h, difference between 160 mM Glu and co-treatment group means; for Neuroprotective effect compared with positive controls (R-LA, DFO): 160 mM Glu, 24 h. On the procedure: Similarly, to the previous test the assay was performed in 96-well microplates with 20000 cells per well. Day after the seeding of cells, SH-SYSY underwent all-trans retinoic acid (ATRA)-differentiation for 48 h (ATRA 10 μM). […] […] After 24 h the cell death was quantified by propidium iodide staining according to literature (Stone et al. BMC Cell Biol. 2003, 4, 1) with modifications. In general, PI staining is associated with damaged cell membrane or presence of dying cells (Stone et al. BMC Cell Biol. 2003, 4, 1). Due to the loss of adherence, damaged or death cells were stained by PI solution directly in media at 1.5 μM final concentration and incubated at room temperature for 15-25 minutes at room temperature. PI stained cells were quantified at 535/617 nm (excitation/emission) by Infinite M200 Pro (Tecan) microplate reader. Cell death generated by 160 mM Glu was consider as 100% of cell death so that reduction in cell death (neuroprotective effect) was observed.

Data set [4] in a line: Calcein AM viability test on ATRA-differentiated neuron-like SH-SY5Y cells. Particulars: human, ATRA-differentiated neuron-like SH-SY5Y neuroblastoma cells, 24 hours of treatment, mean of two independent experiments, read-out: Viability (% of DMSO control). The data set is classed as cell-based.
Experiment in data set [5]: as above
Particulars: human, ATRA-differentiated neuron-like SH-SY5Y neuroblastoma cells; 1 μM, 24 hours of treatment, mean of two independent experiments; read-out: Viability (% of DMSO control). The data set is classed as cell-based, human. On the procedure: as §1

As for `CC(C)CCC[C@@H](C)[C@H]1CC[C@H]2[C@@H]3CC(=O)[C@H]4C[C@H](O)[C@H](O)C[C@]4(C)[C@H]3CC[C@]12C` [Compound 111], the “Viability (% of DMSO control)” value in data set [1] (0.1 μM) is 106.90 % of DMSO control; in data set [1] (1 μM) it was 107.80 % of DMSO control; in data set [1] (10 μM) it was 109.90 % of DMSO control. The figures for the “Superoxide radical formation (% of 160 mM glutamate control)” value in data set [2] (1 μM) and in data set [2] (10 μM) were 89.17% and 80.21%, respectively. The “Neuroprotective effect (% of control)” value in data set [3] (10 μM) was 26.52 % of control.
As for `CCC[C@@H](C)[C@H]1CC[C@H]2[C@@H]3CC(=O)[C@H]4C[C@H](O)[C@H](O)C[C@]4(C)[C@H]3CC[C@]12C` [Compound 15], the “Viability (% of DMSO control)” value in data set [1] (0.1 μM) is 98.20 % of DMSO control; in data set [1] (1 μM) it was 106.40 % of DMSO control; in data set [1] (10 μM), 120.60 % of DMSO control. Besides, the “Superoxide radical formation (% of 160 mM glutamate control)” value in data set [2] (1 μM) was found to be 98.27%; in data set [2] (10 μM), 85.61%. In addition, in data set [3] (10 μM), the “Neuroprotective effect compared with positive controls (R-LA, DFO)” value is on record as “double neuroprotective effect than R-LA”. Moreover, in data set [3] (10 μM), the “Neuroprotective effect (% of control)” value is listed as 30.08 % of control.
Consider `CCCCC[C@@H](C)[C@H]1CC[C@H]2[C@@H]3CC(=O)[C@H]4C[C@H](O)[C@H](O)C[C@]4(C)[C@H]3CC[C@]12C` [Compound 57], for which the “Viability (% of DMSO control)” value in data set [1] (0.1 μM) is listed as 105.90 % of DMSO control; in data set [1] (1 μM), 108.90 % of DMSO control; in data set [1] (10 μM) it was 117.10 % of DMSO control. Besides, the results for the “Superoxide radical formation (% of 160 mM glutamate control)” value in data set [2] (1 μM) and in data set [2] (10 μM) were 93.34% and 83.99%, respectively. For the same compound, the “Neuroprotective effect (% of control)” value in data set [3] (1 μM) was 15.99 % of control; in data set [3] (10 μM), 24.88 % of control.
For the compound `CCCC[C@@H](C)[C@H]1CC[C@H]2[C@@H]3CC(=O)[C@H]4C[C@H](O)[C@H](O)C[C@]4(C)[C@H]3CC[C@]12C` [Compound 30], the “Viability (% of DMSO control)” value in data set [1] (0.1 μM) is on record as 99.41 % of DMSO control; in data set [1] (1 μM), 102.30 % of DMSO control; in data set [1] (10 μM), 104.70 % of DMSO control. For the same compound, the “Superoxide radical formation (% of 160 mM glutamate control)” value in data set [2] (1 μM) is 84.54%; in data set [2] (10 μM), 81.08%. In data set [3] (10 μM), the “Neuroprotective effect (% of control)” value was 23.17 % of control.
For the compound `O=C(O)CCCC[C@@H]1CCSS1` [R-LA, R-lipoic acid, reference compound], the “Superoxide radical formation (% of 160 mM glutamate control)” value in data set [2] (5 μM) worked out at 86.72%; in data set [2] (50 μM) it was 83.91%. Further, in data set [3] (50 μM), the “Neuroprotective effect (% of control)” value is given as 13.49 % of control.
As to `CC[C@@H](C)[C@H]1CC[C@H]2[C@@H]3CC(=O)[C@H]4C[C@H](O)[C@H](O)C[C@]4(C)[C@H]3CC[C@]12C` [Compound 6], the “Viability (% of DMSO control)” value in data set [1] (0.1 μM) was 101.30 % of DMSO control; in data set [1] (1 μM), 104.80 % of DMSO control; in data set [1] (10 μM), 122.10 % of DMSO control. Besides, the “Superoxide radical formation (% of 160 mM glutamate control)” value in data set [2] (1 μM) is 85.36%; in data set [2] (10 μM) it was 80.19%. Further, the “Neuroprotective effect (% of control)” value in data set [3] (1 μM) is 15.00 % of control; in data set [3] (10 μM), 33.70 % of control. The “Neuroprotective effect compared with positive controls (R-LA, DFO)” value in data set [3] (10 μM) was “double neuroprotective effect than R-LA”.
In general, viability refers to a read-out of living cells in per cent, often relative to untreated cells. On to `CC(=O)N(O)CCCCCNC(=O)CCC(=O)N(O)CCCCCNC(=O)CCC(=O)N(O)CCCCCN` [DFO, deferoxamine, reference compound], for which the viability at 24 h, 5 µM in data set [4] (5 μM) was 106%. For the same compound, the viability at 24 h, 50 µM in data set [4] (50 μM) was 110%. Moreover, in data set [5], the viability at 24 h, 1 µM was 106%. In addition, the results for the “Superoxide radical formation (% of 160 mM glutamate control)” value in data set [2] (10 μM) and in data set [2] (100 μM) were 87.06% and 92.61%, respectively. Also, the entries for the “Neuroprotective effect (% of control)” value in data set [3] (10 μM) and in data set [3] (100 μM) were 19.94 % of control and 23.55 % of control, respectively.

Values taken from patent US20230365616A1, “CHOLESTANE DERIVATIVES, PREPARATIONS CONTAINING THESE DERIVATIVES AND USE THEREOF” (UNIVERZITA PALACKEHO V OLOMOUCI, priority 2020, published 2023).
